Measurements from ChEMBL document CHEMBL1770068, “Pharmacophore-based virtual screening and Bayesian model for the identification of potential human leukotriene A4 hydrolase inhibitors” (Eur J Med Chem, 2011).

Molecular target: T1, Leukotriene A-4 hydrolase (Homo sapiens, UniProt P09960)
T1 sequence (P09960 whole entry): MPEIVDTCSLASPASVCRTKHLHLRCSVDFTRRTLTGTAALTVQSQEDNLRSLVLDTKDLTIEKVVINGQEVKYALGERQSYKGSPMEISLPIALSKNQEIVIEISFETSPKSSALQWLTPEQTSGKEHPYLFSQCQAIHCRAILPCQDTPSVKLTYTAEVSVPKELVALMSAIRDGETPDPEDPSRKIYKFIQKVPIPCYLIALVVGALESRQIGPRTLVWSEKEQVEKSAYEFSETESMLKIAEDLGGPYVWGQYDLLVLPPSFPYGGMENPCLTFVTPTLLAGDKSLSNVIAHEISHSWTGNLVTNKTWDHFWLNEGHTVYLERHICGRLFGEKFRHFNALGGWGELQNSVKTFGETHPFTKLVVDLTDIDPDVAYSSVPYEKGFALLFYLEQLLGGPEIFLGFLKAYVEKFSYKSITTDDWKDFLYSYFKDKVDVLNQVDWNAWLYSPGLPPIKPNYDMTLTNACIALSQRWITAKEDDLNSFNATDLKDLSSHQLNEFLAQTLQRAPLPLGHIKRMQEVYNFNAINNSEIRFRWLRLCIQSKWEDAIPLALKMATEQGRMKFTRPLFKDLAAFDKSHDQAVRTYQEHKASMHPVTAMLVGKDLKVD

Row | SMILES | IC50 [nM]
1 | CC(NC(=O)C(CC(=O)O)Cc1ccccc1)C(=O)O (stereo not given) | 300
2 | O=C(CC(Cc1ccccc1)C(=O)N1CCCCC1C(=O)O)NO (stereo not given) | 1800
3 | O=C(O)c1ccc(CN2CC3CCCC2C(Nc2ccc(Oc4nc5ccccc5s4)cc2)C3)cc1 (stereo not given) | 9

These reach a lower IC50. Values come first.

Row | IC50 [nM] | SMILES
4 | 5 | O=C(O)c1ccc(CN2CC3CCCC2C(Nc2ccc(Oc4ccc(-c5ccccc5)cc4)cc2)C3)cc1 (stereo not given)
5 | 0.5 | CN(CCCOc1ccc(Oc2ccc(-c3ccccc3)cc2)cc1)CCC(=O)O
